# Data: patent publication US4130559A, “Method for the preparation of 6-aminopenicillinic acid derivatives” (priority 1977, dated 1978)
# System: not listed separately
# Test: Acid resistance (half-life period)
# Assay type: physicochemical
# Details: acid ph 1.3, pH 1.3; under conditions of our experiments; read-out: half-life period
# Procedure: (§1) All compounds of this group were prepared in the form of sodium salts. Bactericidal activity, degree of hydrolysis with staphylococc penicillinase and acid resistance of the penicillins were determined.
row,SMILES,half-life [min]
1,"CC1(C)S[C@@H]2[C@H](NC(=O)Cc3ccccc3)C(=O)N2[C@H]1C(=O)O [Benzyl Penicillin, benzylpenicillin, reference compound]",2.1
2,"CC1(C)SC2C(NC(=O)C3(c4ccccc4)CCCC3)C(=O)N2C1C(=O)O (stereo not shown) [Compound I (Table 1), 1-Phenylcyclopentyl-1-Penicillin]",26

# Same assay, conditions: acid ph 1.3; Temperature 37° C, pH 1.3; Table 1, cyclopentyl series; read-out: τ1/2 half-life period (acid resistance)
row,SMILES,half-life [min]
1,COc1ccccc1C1(C(=O)NC2C(=O)N3C2SC(C)(C)C3C(=O)O)CCCC1 (stereo not shown) [Compound II (Table 1)],187

# Target: staphylococc penicillinase (Staphylococcus aureus, UniProt P00807)
# Test: Hydrolysis/inactivation by staphylococc penicillinase
# Assay type: biochemical
# Details: Table 5
# Procedure: as §1
# The substitution of propoxy radical for iso-radical in this position is not accompanied by areduction of penicillin stability against penicillinase which is not observed in the orto- and para-positions. During the subsequent hours of inactivation the rate of hydrolysis of penicillins slightly increases. However, even when observed in dynamics, their stability against penicillianase still persists during 4-hour-inactivation.
# Chain of staphylococc penicillinase (P00807 25-281): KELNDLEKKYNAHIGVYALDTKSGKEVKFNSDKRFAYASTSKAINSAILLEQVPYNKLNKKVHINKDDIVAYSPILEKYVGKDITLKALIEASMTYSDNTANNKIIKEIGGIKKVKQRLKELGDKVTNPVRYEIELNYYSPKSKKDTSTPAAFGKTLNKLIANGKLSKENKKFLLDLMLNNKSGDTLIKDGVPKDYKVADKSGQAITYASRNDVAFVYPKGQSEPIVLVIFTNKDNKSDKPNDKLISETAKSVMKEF
row,SMILES,Quantity of inactivated units of compounds under the action of 1 unit of staphylococc penicillinase [units]
1,"CC1(C)SC2C(NC(=O)C3(c4ccccc4)CCCC3)C(=O)N2C1C(=O)O (stereo not shown) [Compound I (Table 1), 1-Phenylcyclopentyl-1-Penicillin]",0
2,COc1ccccc1C1(C(=O)NC2C(=O)N3C2SC(C)(C)C3C(=O)O)CCCC1 (stereo not shown) [Compound II (Table 1)],28.8

# Same assay, conditions: during the first hour after inactivation; 60 min
row,SMILES,stability against penicillinase [%]
1,"CC1(C)SC2C(NC(=O)C3(c4ccccc4)CCCC3)C(=O)N2C1C(=O)O (stereo not shown) [Compound I (Table 1), 1-Phenylcyclopentyl-1-Penicillin]",100

# System: B.Subtitis ATCC6633
# Test: Minimal bacteriostatic concentration
# Assay type: cell-based
# Details: sodium salts
# Procedure: as §1
row,SMILES,MIC [µg/mL]
1,"CC1(C)S[C@@H]2[C@H](NC(=O)Cc3ccccc3)C(=O)N2[C@H]1C(=O)O [Benzyl Penicillin, benzylpenicillin, reference compound]",0.048
2,"CC1(C)SC2C(NC(=O)C3(c4ccccc4)CCCC3)C(=O)N2C1C(=O)O (stereo not shown) [Compound I (Table 1), 1-Phenylcyclopentyl-1-Penicillin]",0.09
3,COc1ccccc1C1(C(=O)NC2C(=O)N3C2SC(C)(C)C3C(=O)O)CCCC1 (stereo not shown) [Compound II (Table 1)],3.9

# System: E.coli O-55
# Test: Minimal bacteriostatic concentration
# Assay type: cell-based
# Details: Escherichia coli, O55, read-out: Minimal Bacteriostatic Concentration
# Procedure: as §1
row,SMILES,MIC [µg/mL]
1,"CC1(C)S[C@@H]2[C@H](NC(=O)Cc3ccccc3)C(=O)N2[C@H]1C(=O)O [Benzyl Penicillin, benzylpenicillin, reference compound]",31.2

# Same assay, conditions: Escherichia coli, O55; E.coli O-55; sodium salts; read-out: Minimal Bacteriostatic Concentration
row,SMILES,MIC [µg/mL]
1,"CC1(C)SC2C(NC(=O)C3(c4ccccc4)CCCC3)C(=O)N2C1C(=O)O (stereo not shown) [Compound I (Table 1), 1-Phenylcyclopentyl-1-Penicillin]",500
2,COc1ccccc1C1(C(=O)NC2C(=O)N3C2SC(C)(C)C3C(=O)O)CCCC1 (stereo not shown) [Compound II (Table 1)],250

# System: E.typhi
# Test: Minimal bacteriostatic concentration
# Assay type: cell-based
# Details: read-out: Minimal Bacteriostatic Concentration
# Procedure: as §1
row,SMILES,MIC [µg/mL]
1,"CC1(C)S[C@@H]2[C@H](NC(=O)Cc3ccccc3)C(=O)N2[C@H]1C(=O)O [Benzyl Penicillin, benzylpenicillin, reference compound]",0.39
2,"CC1(C)SC2C(NC(=O)C3(c4ccccc4)CCCC3)C(=O)N2C1C(=O)O (stereo not shown) [Compound I (Table 1), 1-Phenylcyclopentyl-1-Penicillin]",62.5
3,COc1ccccc1C1(C(=O)NC2C(=O)N3C2SC(C)(C)C3C(=O)O)CCCC1 (stereo not shown) [Compound II (Table 1)],62.5

# System: Myco smegmatis
# Test: Minimal bacteriostatic concentration
# Assay type: cell-based
# Details: sodium salts
# Procedure: as §1
row,SMILES,MIC [µg/mL]
1,"CC1(C)S[C@@H]2[C@H](NC(=O)Cc3ccccc3)C(=O)N2[C@H]1C(=O)O [Benzyl Penicillin, benzylpenicillin, reference compound]",> 500
2,"CC1(C)SC2C(NC(=O)C3(c4ccccc4)CCCC3)C(=O)N2C1C(=O)O (stereo not shown) [Compound I (Table 1), 1-Phenylcyclopentyl-1-Penicillin]",> 500
3,COc1ccccc1C1(C(=O)NC2C(=O)N3C2SC(C)(C)C3C(=O)O)CCCC1 (stereo not shown) [Compound II (Table 1)],> 500

# System: Prot.vulgaris
# Test: Minimal bacteriostatic concentration
# Assay type: cell-based
# Details: Proteus vulgaris, sodium salts
# Procedure: as §1
row,SMILES,MIC [µg/mL]
1,"CC1(C)S[C@@H]2[C@H](NC(=O)Cc3ccccc3)C(=O)N2[C@H]1C(=O)O [Benzyl Penicillin, benzylpenicillin, reference compound]",1.56
2,"CC1(C)SC2C(NC(=O)C3(c4ccccc4)CCCC3)C(=O)N2C1C(=O)O (stereo not shown) [Compound I (Table 1), 1-Phenylcyclopentyl-1-Penicillin]",250
3,COc1ccccc1C1(C(=O)NC2C(=O)N3C2SC(C)(C)C3C(=O)O)CCCC1 (stereo not shown) [Compound II (Table 1)],500

# System: Ps.aeruginosa
# Test: Minimal bacteriostatic concentration
# Assay type: cell-based
# Details: Pseudomonas aeruginosa, sodium salts
# Procedure: as §1
row,SMILES,MIC [µg/mL]
1,"CC1(C)S[C@@H]2[C@H](NC(=O)Cc3ccccc3)C(=O)N2[C@H]1C(=O)O [Benzyl Penicillin, benzylpenicillin, reference compound]",> 500
2,"CC1(C)SC2C(NC(=O)C3(c4ccccc4)CCCC3)C(=O)N2C1C(=O)O (stereo not shown) [Compound I (Table 1), 1-Phenylcyclopentyl-1-Penicillin]",> 500
3,COc1ccccc1C1(C(=O)NC2C(=O)N3C2SC(C)(C)C3C(=O)O)CCCC1 (stereo not shown) [Compound II (Table 1)],> 500

# System: Sh.dysenteriae Flexneri
# Test: Minimal bacteriostatic concentration
# Assay type: cell-based
# Details: Shigella dysenteriae, read-out: Minimal Bacteriostatic Concentration
# Procedure: as §1
row,SMILES,MIC [µg/mL]
1,"CC1(C)S[C@@H]2[C@H](NC(=O)Cc3ccccc3)C(=O)N2[C@H]1C(=O)O [Benzyl Penicillin, benzylpenicillin, reference compound]",3.12
2,"CC1(C)SC2C(NC(=O)C3(c4ccccc4)CCCC3)C(=O)N2C1C(=O)O (stereo not shown) [Compound I (Table 1), 1-Phenylcyclopentyl-1-Penicillin]",125
3,COc1ccccc1C1(C(=O)NC2C(=O)N3C2SC(C)(C)C3C(=O)O)CCCC1 (stereo not shown) [Compound II (Table 1)],62.5

# System: Staph. albus
# Test: Minimal bacteriostatic concentration
# Assay type: cell-based
# Details: sodium salts
# Procedure: as §1
row,SMILES,MIC [µg/mL]
1,"CC1(C)S[C@@H]2[C@H](NC(=O)Cc3ccccc3)C(=O)N2[C@H]1C(=O)O [Benzyl Penicillin, benzylpenicillin, reference compound]",0.006
2,"CC1(C)SC2C(NC(=O)C3(c4ccccc4)CCCC3)C(=O)N2C1C(=O)O (stereo not shown) [Compound I (Table 1), 1-Phenylcyclopentyl-1-Penicillin]",0.048
3,COc1ccccc1C1(C(=O)NC2C(=O)N3C2SC(C)(C)C3C(=O)O)CCCC1 (stereo not shown) [Compound II (Table 1)],0.9

# System: Staph. aureus 209p (adapted to benzylpenicillin)
# Test: Minimal bacteriostatic concentration
# Assay type: cell-based
# Details: Staphylococcus aureus, read-out: Minimal Bacteriostatic Concentration
# Procedure: as §1
row,SMILES,MIC [µg/mL]
1,"CC1(C)S[C@@H]2[C@H](NC(=O)Cc3ccccc3)C(=O)N2[C@H]1C(=O)O [Benzyl Penicillin, benzylpenicillin, reference compound]",> 500
2,"CC1(C)SC2C(NC(=O)C3(c4ccccc4)CCCC3)C(=O)N2C1C(=O)O (stereo not shown) [Compound I (Table 1), 1-Phenylcyclopentyl-1-Penicillin]",> 500
3,COc1ccccc1C1(C(=O)NC2C(=O)N3C2SC(C)(C)C3C(=O)O)CCCC1 (stereo not shown) [Compound II (Table 1)],> 500

# System: Staph. aureus 209p
# Test: Minimal bacteriostatic concentration
# Assay type: cell-based
# Details: Staphylococcus aureus, sodium salts
# Procedure: as §1
row,SMILES,MIC [µg/mL]
1,"CC1(C)S[C@@H]2[C@H](NC(=O)Cc3ccccc3)C(=O)N2[C@H]1C(=O)O [Benzyl Penicillin, benzylpenicillin, reference compound]",0.012
2,"CC1(C)SC2C(NC(=O)C3(c4ccccc4)CCCC3)C(=O)N2C1C(=O)O (stereo not shown) [Compound I (Table 1), 1-Phenylcyclopentyl-1-Penicillin]",0.048
3,COc1ccccc1C1(C(=O)NC2C(=O)N3C2SC(C)(C)C3C(=O)O)CCCC1 (stereo not shown) [Compound II (Table 1)],0.9

# System: Strept. pyrogenes
# Test: Minimal bacteriostatic concentration
# Assay type: cell-based
# Details: sodium salts
# Procedure: as §1
row,SMILES,MIC [µg/mL]
1,"CC1(C)S[C@@H]2[C@H](NC(=O)Cc3ccccc3)C(=O)N2[C@H]1C(=O)O [Benzyl Penicillin, benzylpenicillin, reference compound]",0.003
2,"CC1(C)SC2C(NC(=O)C3(c4ccccc4)CCCC3)C(=O)N2C1C(=O)O (stereo not shown) [Compound I (Table 1), 1-Phenylcyclopentyl-1-Penicillin]",0.012
3,COc1ccccc1C1(C(=O)NC2C(=O)N3C2SC(C)(C)C3C(=O)O)CCCC1 (stereo not shown) [Compound II (Table 1)],0.78

# System: Vibrion Metschnicoff
# Test: Minimal bacteriostatic concentration
# Assay type: cell-based
# Details: Vibrion Metschnicoff; sodium salts; read-out: Minimal Bacteriostatic Concentration
# Procedure: as §1
row,SMILES,MIC [µg/mL]
1,"CC1(C)S[C@@H]2[C@H](NC(=O)Cc3ccccc3)C(=O)N2[C@H]1C(=O)O [Benzyl Penicillin, benzylpenicillin, reference compound]",0.78

# Same assay, conditions: read-out: Minimal Bacteriostatic Concentration
row,SMILES,MIC [µg/mL]
1,"CC1(C)SC2C(NC(=O)C3(c4ccccc4)CCCC3)C(=O)N2C1C(=O)O (stereo not shown) [Compound I (Table 1), 1-Phenylcyclopentyl-1-Penicillin]",0.24

# System: not listed separately
# Test: in vivo
# Details: mouse, iv
row,SMILES,MTD [mg/kg]
1,"CC1(C)SC2C(NC(=O)C3(c4ccccc4)CCCC3)C(=O)N2C1C(=O)O (stereo not shown) [Compound I (Table 1), 1-Phenylcyclopentyl-1-Penicillin]",500
2,COc1ccccc1C1(C(=O)NC2C(=O)N3C2SC(C)(C)C3C(=O)O)CCCC1 (stereo not shown) [Compound II (Table 1)],2000
